In PubChem BioAssay AID1919013 (Molecular Pharmacology Branch, DTP, NCI, 2023):
Blank lines part the entries; values can stand above or below the compound they belong to.

Test system: LG0703-F498-PDC complex spheroid growth
Assay: Anticancer human tumor LG0703-F498-PDC patient-derived lung adenocarcinoma cell line growth inhibition [AhR]
Details: for IC50: curve of first compound; for viability, T/C: stronger effect = lower value
Description: Multicellular complex tumor spheroid response to aryl hydrocarbon receptor antagonists in combination with a variety of drugs and investigational agents in selected tumor cell lines
The current study was undertaken to assess response to aryl hydrocarbon receptor antagonists in combination with standard-of-care drugs and investigational agents in solid tumor complex spheroid models. Complex spheroids include a stromal component modeled by human endothelial cells (HUVEC) and fibroblasts modeled by human mesenchymal stem cells (MSCs). The concentration ranges selected for each drug and investigational agent were based upon clinically achievable concentrations if the clinical Cmax of the agent was known.
Compounds. The drugs and investigational agents: BAY 2416964 (NSC825713), GNF351 (NSC835774), CH-223191 (NSC835775), CPI-455 (NSC825282), aza-TdCyd (NSC777586), decitabine (NSC127716), belinostat (NSC758774), entinostat (NSC756642), pevonedistat (NSC761192), tazemetostat (NSC777109), talazoparib (NSC765396), olaparib (NSC753686), selinexor (NSC780203), nedisertib (M3814, NSC802822), bortezomib (NSC756655), venetoclax (NSC766270), doxorubicin (NSC123127), elimusertib (BAY189344, NSC800525), ceralasertib (AZD6738, NSC777638), TAK-243 (NSC785004), alisertib (NSC759677), etoposide (NSC141540), topotecan (NSC609699), eribulin (NSC707389), gemcitabine (NSC613327), carboplatin (NSC241240), cisplatin (NSC119875), and SN-38 (NSC673596) were obtained from the National Cancer Institute (NCI) Developmental Therapeutics Program Chemical Repository (32). The FDA-approved anticancer drug set is available from the Developmental Therapeutics Program at https://dtp.cancer.gov/organization/dscb/obtaining/available plates.htm. […] The stock solutions were prepared in dimethyl sulfoxide (DMSO, Sigma-Aldrich, St. Louis, MO, cat. D2650), except for the platinum compounds which were prepared in saline (Quality Biological, Gaithersburg, MD, cat. 114-055-101), at 800-fold the tested concentration and stored at -70 degrees C prior to their use. All drugs and investigational agents were tested over a range starting from a high concentration at or near the clinical Cmax and decreasing in half-log increments. If the clinical Cmax for an agent had not been determined, the highest concentration tested was 10 microM (Table 1).
Cell Culture. All cells were maintained in an incubator at 37 degrees C and 5% CO2 with 95% humidity. The PDC lines were cultured according to standard operating procedures established by the NCI PDMR (https://pdmr.cancer.gov). Briefly, all PDCs were thawed and cultured in Matrigel-coated flasks prepared with a working solution of 1X Ham's F-12 nutrient mix, without supplementation (Invitrogen, Waltham, MA, cat. 11765054), 100 U/mL penicillin-streptomycin (Invitrogen, cat. 15140122), and 2.5% Matrigel (Corning Inc., Corning, NY, cat. 354248) for the first three passages. All PDCs were cultured in complete DMEM/F-12 media containing advanced DMEM/F-12 (Invitrogen, cat. 12634028), 4.9% defined fetal bovine serum, heat inactivated (HyClone Laboratories Inc., Logan, UT, cat. SH30070.03HI), 389 ng/mL hydrocortisone (Sigma-Aldrich, cat. H4001), 9.7 ng/mL human EGF recombinant protein (Invitrogen, cat. PHG0313), 23.4 microg/mL adenine (Sigma-Aldrich, cat. A2786), 97.3 U/mL penicillin-streptomycin (Invitrogen, cat. 15140122), 1.9 mM L-glutamine (Invitrogen, cat. 25030081), and 9.7 microM Y-27632 dihydrochloride (Tocris Bioscience, Bristol, United Kingdom, cat. 1254). The PDCs were cultured in complete DMEM/F12 media without 10 microM Y-27632 dihydrochloride for at least two passages prior to the screen. The established cell lines NCI-H1341 and […] were cultured in DMEM/F-12, HEPES (Invitrogen, cat. 11330032), 5% defined fetal bovine serum (HyClone Laboratories Inc., cat. SH30070.03), ITS premix universal culture supplement [insulin (5 microg/mL), transferrin (5 microg/mL), and selenious acid (5 ng/mL)] […]

[1] = second compound 0.1 µM, first compound 0.0316 µM
[2] = second compound 0.1 µM, first compound 0.1 µM
[3] = second compound 0.1 µM, first compound 0.316 µM
[4] = second compound 0.1 µM, first compound 1 µM
[5] = second compound 0.316 µM, first compound 0.0316 µM
[6] = second compound 0.316 µM, first compound 0.1 µM
[7] = second compound 0.316 µM, first compound 0.316 µM
[8] = second compound 0.316 µM, first compound 1 µM
[9] = second compound 1 µM, first compound 0.0316 µM
[10] = second compound 1 µM, first compound 0.1 µM
[11] = second compound 1 µM, first compound 0.316 µM
[12] = second compound 1 µM, first compound 1 µM
[13] = second compound 3.16 µM, first compound 0.0316 µM
[14] = second compound 3.16 µM, first compound 0.1 µM
[15] = second compound 3.16 µM, first compound 0.316 µM
[16] = second compound 3.16 µM, first compound 1 µM
[17] = second compound 10 µM, first compound 0.0316 µM
[18] = second compound 10 µM, first compound 0.1 µM
[19] = second compound 10 µM, first compound 0.316 µM
[20] = second compound 10 µM, first compound 1 µM
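Further: luminescence taken as a proxy for viable cell amount.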
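Wherever viability, T/C is given: percent of DMSO vehicle control where 100% means growth equal to vehicle.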

IC50 (second compound 0.1 µM): 5.15 nM
IC50 (second compound 0.316 µM): 5 nM
IC50 (second compound 1 µM): 5.26 nM
IC50 (second compound 3.16 µM): 5 nM
IC50 (second compound 10 µM): 5.1 nM
Compound: CC(C)CC(NC(=O)C(Cc1ccccc1)NC(=O)c1cnccn1)B(O)O (stereo not given) + Cc1ccccc1N=Nc1ccc(NC(=O)c2ccnn2C)c(C)c1
viability, T/C (second compound 0.1 µM, first compound 0.000949 µM): 101%
viability, T/C (second compound 0.1 µM, first compound 0.003 µM): 85.3%
viability, T/C (second compound 0.1 µM, first compound 0.00949 µM): 10%
viability, T/C (second compound 0.1 µM, first compound 0.03 µM): 0.56%
viability, T/C (second compound 0.1 µM, first compound 0.0949 µM): 0.28%
viability, T/C (second compound 0.1 µM, first compound 0.3 µM): 0.18%
viability, T/C (second compound 0.316 µM, first compound 0.000949 µM): 95.2%
viability, T/C (second compound 0.316 µM, first compound 0.003 µM): 80%
viability, T/C (second compound 0.316 µM, first compound 0.00949 µM): 12.3%
viability, T/C (second compound 0.316 µM, first compound 0.03 µM): 0.81%
viability, T/C (second compound 0.316 µM, first compound 0.0949 µM): 0.11%
viability, T/C (second compound 0.316 µM, first compound 0.3 µM): 0.12%
viability, T/C (second compound 1 µM, first compound 0.000949 µM): 85.1%
viability, T/C (second compound 1 µM, first compound 0.003 µM): 85.8%
viability, T/C (second compound 1 µM, first compound 0.00949 µM): 12.8%
viability, T/C (second compound 1 µM, first compound 0.03 µM): 0.76%
viability, T/C (second compound 1 µM, first compound 0.0949 µM): 0.13%
viability, T/C (second compound 1 µM, first compound 0.3 µM): 0.17%
viability, T/C (second compound 3.16 µM, first compound 0.000949 µM): 86.9%
viability, T/C (second compound 3.16 µM, first compound 0.003 µM): 78%
viability, T/C (second compound 3.16 µM, first compound 0.00949 µM): 14.8%
viability, T/C (second compound 3.16 µM, first compound 0.03 µM): 1.06%
viability, T/C (second compound 3.16 µM, first compound 0.0949 µM): 0.16%
viability, T/C (second compound 3.16 µM, first compound 0.3 µM): 0.29%
viability, T/C (second compound 10 µM, first compound 0.000949 µM): 82%
viability, T/C (second compound 10 µM, first compound 0.003 µM): 81.3%
viability, T/C (second compound 10 µM, first compound 0.00949 µM): 13.5%
viability, T/C (second compound 10 µM, first compound 0.03 µM): 1.28%
viability, T/C (second compound 10 µM, first compound 0.0949 µM): 0.3%
viability, T/C (second compound 10 µM, first compound 0.3 µM): 0.39%

IC50 (second compound 0.1 µM): > 1000 nM
IC50 (second compound 0.316 µM): > 1000 nM
IC50 (second compound 1 µM): > 1000 nM
IC50 (second compound 3.16 µM): > 1000 nM
IC50 (second compound 10 µM): > 1000 nM
Compound: Nc1ncn(C2CC(O)C(CO)O2)c(=O)n1 (stereo not given) + Cc1ccccc1N=Nc1ccc(NC(=O)c2ccnn2C)c(C)c1
viability, T/C (second compound 0.1 µM, first compound 0.00316 µM): 96.5%
viability, T/C (second compound 0.1 µM, first compound 0.01 µM): 99.1%
viability, T/C [1]: 94.8%
viability, T/C [2]: 85%
viability, T/C [3]: 83.2%
viability, T/C [4]: 83.9%
viability, T/C (second compound 0.316 µM, first compound 0.00316 µM): 97%
viability, T/C (second compound 0.316 µM, first compound 0.01 µM): 93.6%
viability, T/C [5]: 92.1%
viability, T/C [6]: 90.1%
viability, T/C [7]: 76.5%
viability, T/C [8]: 87%
viability, T/C (second compound 1 µM, first compound 0.00316 µM): 86.2%
viability, T/C (second compound 1 µM, first compound 0.01 µM): 101%
viability, T/C [9]: 88%
viability, T/C [10]: 89.7%
viability, T/C [11]: 75.4%
viability, T/C [12]: 92.6%
viability, T/C (second compound 3.16 µM, first compound 0.00316 µM): 95.2%
viability, T/C (second compound 3.16 µM, first compound 0.01 µM): 97.6%
viability, T/C [13]: 87%
viability, T/C [14]: 75%
viability, T/C [15]: 79.4%
viability, T/C [16]: 65.5%
viability, T/C (second compound 10 µM, first compound 0.00316 µM): 85.9%
viability, T/C (second compound 10 µM, first compound 0.01 µM): 90.9%
viability, T/C [17]: 86.6%
viability, T/C [18]: 72.4%
viability, T/C [19]: 74.2%
viability, T/C [20]: 68.3%

IC50 (second compound 0.1 µM): 607 nM
IC50 (second compound 0.316 µM): 636 nM
IC50 (second compound 1 µM): 667 nM
IC50 (second compound 3.16 µM): 690 nM
IC50 (second compound 10 µM): 727 nM
Compound: O=C(C=Cc1cccc(S(=O)(=O)Nc2ccccc2)c1)NO + CC(CO)NC(=O)c1cc(-c2ccc(Cl)cc2)nn(-c2cnn(C)c2)c1=O
viability, T/C [1]: 106%
viability, T/C [2]: 112%
viability, T/C [3]: 77.3%
viability, T/C [4]: 28.5%
viability, T/C (second compound 0.1 µM, first compound 3.16 µM): 7%
viability, T/C (second compound 0.1 µM, first compound 10 µM): 1.6%
viability, T/C [5]: 105%
viability, T/C [6]: 101%
viability, T/C [7]: 77%
viability, T/C [8]: 32.4%
viability, T/C (second compound 0.316 µM, first compound 3.16 µM): 7.34%
viability, T/C (second compound 0.316 µM, first compound 10 µM): 1.04%
viability, T/C [9]: 102%
viability, T/C [10]: 106%
viability, T/C [11]: 77.8%
viability, T/C [12]: 34.6%
viability, T/C (second compound 1 µM, first compound 3.16 µM): 8.18%
viability, T/C (second compound 1 µM, first compound 10 µM): 1.73%
viability, T/C [13]: 105%
viability, T/C [14]: 108%
viability, T/C [15]: 74.4%
viability, T/C [16]: 39%
viability, T/C (second compound 3.16 µM, first compound 3.16 µM): 7.73%
viability, T/C (second compound 3.16 µM, first compound 10 µM): 1.63%
viability, T/C [17]: 101%
viability, T/C [18]: 121%
viability, T/C [19]: 81.8%
viability, T/C [20]: 37.6%
viability, T/C (second compound 10 µM, first compound 3.16 µM): 8.76%
viability, T/C (second compound 10 µM, first compound 10 µM): 1.23%
